Source: patent publication US7704701B2, “Diagnosis of prostate cancer with SPAS-1 cancer antigen” (The Regents of the University of California, priority 2000, dated 2010)

Columns and labels:
CD8+ T cells [1] = assay: IFN-γ production (ELISA) by in vitro primed T cell cultures in response to peptide pulsed onto A221 cells; assay type: cell-based, human; conditions: HLA-A2+ healthy donors
Source text: (§1) FIG. 21: Strategy for the generation of human cytotoxic T lymphocytes (CTLs) specific for candidate human SPAS-1 peptides: In order to determine whether CD8+ T cells specific for human SPAS-1 peptides are present in the periphery of healthy individuals we used an in vitro priming strategy. Briefly, immature Myeloid Dendritic Cells (mDCs) were generated from culturing monocytes isolated from Peripheral Blood Mononuclear Cells (PBMCs) of a healthy HLA-A2+ donor for 5 days in GM-CSF and IL-4.
Following another in vitro restimulation, T cell cultures were assessed for their capacity to produce IFN-γ in response to the corresponding peptide, pulsed onto the HLA-A2 expressing cell line A221. IFN-γ was assessed by ELISA on the cell supernatants in triplicate wells.
as §1, with “In” for “FIG. 21: Strategy for the generation of human cytotoxic T lymphocytes (CTLs) specific for candidate human SPAS-1 peptides: In”

CD8+ T cells [2] = assay: IFN-γ production (ELISA) by FL-9-primed CD8+ T cells in response to titrated peptide pulsed onto THP-1 cells; assay type: cell-based, human; conditions: fourteen days after first stimulation
Description: FIG. 24. […] A) Monocyte-derived DCs from HLA-A2+ healthy donors were pulsed with HuSPAS-1 peptide 4 (FL-9) and then incubated with autologous PBMC. Following another in vitro restimulation, T cell cultures were then assessed for their capacity to produce IFN-γ in response to titrated doses of peptide 4 (FL-9), pulsed onto the HLA-A2 expressing cell line THP-1. IFN-γ was assessed by ELISA on the cell supernatants in triplicate wells. […] (100,000 CD8+ T cells/well and 50,000 THP-1 cells/well). […] Responsiveness of the FL-9-reactive CD8+ T cell line was assessed by co-culturing 100,000 CD8+ T cells with titrated numbers of infected THP-1 cells.
Monocyte-derived DCs from HLA-A2+ healthy donors were pulsed with HuSPAS-1 peptide 4 (FL-9) and then incubated with autologous PBMC. Following another in vitro restimulation, T cell cultures were then assessed for their capacity to produce IFN-γ in response to titrated doses of peptide 4 (FL-9), pulsed onto the HLA-A2 expressing cell line THP-1. IFN-γ was assessed by ELISA on the cell supernatants in triplicate wells. […] Responsiveness of the FL-9-reactive CD8+ T cell line was assessed by co-culturing 100,000 CD8+ T cells with titrated numbers of infected THP-1 cells.

| Sequence | immunogenicity: IFN-γ production in response to the corresponding peptide (CD8+ T cells [1]) | IFN-γ production in response to increasing doses of peptide (CD8+ T cells [2]) |
| --- | --- | --- |
| FLTPLRNFL (H. sapiens) [P4] | Immunogenic | specifically produced IFN-γ |
| LLADELITV (H. sapiens) [P1] |  | not |
